Laboratory results: ChEMBL document CHEMBL1201862, “PubChem BioAssay data set” (2004)
Active and inactive are the calls of the source.

Assays:
[1] = biological target: G-protein coupled receptor 55 (Homo sapiens, UniProt Q9Y2T6); test: blockers of GPR55 signalling, imaged – imaging, image-based, counter-screen for GPR35 antagonist project, SAR follow-up (AID 2397); type: functional
[2] = biological target: 72 kDa type IV collagenase (Homo sapiens, UniProt P08253); test: Dose Response validation of uHTS RPN11 inhibitor hits using a MMP-2 Fluorescence assay.; type: functional
72 kDa type IV collagenase, sequence (P08253 whole entry): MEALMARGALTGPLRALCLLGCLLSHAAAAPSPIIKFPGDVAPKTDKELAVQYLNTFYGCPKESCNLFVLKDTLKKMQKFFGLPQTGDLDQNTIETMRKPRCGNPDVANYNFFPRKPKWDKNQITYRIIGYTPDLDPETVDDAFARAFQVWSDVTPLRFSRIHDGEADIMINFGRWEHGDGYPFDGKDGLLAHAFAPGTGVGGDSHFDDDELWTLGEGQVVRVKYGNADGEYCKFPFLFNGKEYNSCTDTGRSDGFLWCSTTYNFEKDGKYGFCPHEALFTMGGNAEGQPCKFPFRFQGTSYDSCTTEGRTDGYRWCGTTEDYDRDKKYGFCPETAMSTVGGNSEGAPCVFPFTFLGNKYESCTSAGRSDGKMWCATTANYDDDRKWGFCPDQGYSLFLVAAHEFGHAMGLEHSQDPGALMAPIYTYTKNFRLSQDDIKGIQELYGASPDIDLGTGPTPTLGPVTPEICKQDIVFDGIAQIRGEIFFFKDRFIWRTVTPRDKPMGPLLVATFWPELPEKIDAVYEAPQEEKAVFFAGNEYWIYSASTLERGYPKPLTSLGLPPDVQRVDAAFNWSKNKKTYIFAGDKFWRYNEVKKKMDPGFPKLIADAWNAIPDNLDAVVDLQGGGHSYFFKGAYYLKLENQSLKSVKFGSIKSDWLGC

[3] = biological target: Tyrosine-protein phosphatase non-receptor type 12 (Homo sapiens, UniProt Q05209); test: SAR Selectivity Analysis of small molecule inhibitors of PEST using pCAP in a fluorescence assay. [Related pubchem assays (depositor defined):AID1779, AID1784, AID2135]; type: functional
Tyrosine-protein phosphatase non-receptor type 12, sequence (Q05209 whole entry): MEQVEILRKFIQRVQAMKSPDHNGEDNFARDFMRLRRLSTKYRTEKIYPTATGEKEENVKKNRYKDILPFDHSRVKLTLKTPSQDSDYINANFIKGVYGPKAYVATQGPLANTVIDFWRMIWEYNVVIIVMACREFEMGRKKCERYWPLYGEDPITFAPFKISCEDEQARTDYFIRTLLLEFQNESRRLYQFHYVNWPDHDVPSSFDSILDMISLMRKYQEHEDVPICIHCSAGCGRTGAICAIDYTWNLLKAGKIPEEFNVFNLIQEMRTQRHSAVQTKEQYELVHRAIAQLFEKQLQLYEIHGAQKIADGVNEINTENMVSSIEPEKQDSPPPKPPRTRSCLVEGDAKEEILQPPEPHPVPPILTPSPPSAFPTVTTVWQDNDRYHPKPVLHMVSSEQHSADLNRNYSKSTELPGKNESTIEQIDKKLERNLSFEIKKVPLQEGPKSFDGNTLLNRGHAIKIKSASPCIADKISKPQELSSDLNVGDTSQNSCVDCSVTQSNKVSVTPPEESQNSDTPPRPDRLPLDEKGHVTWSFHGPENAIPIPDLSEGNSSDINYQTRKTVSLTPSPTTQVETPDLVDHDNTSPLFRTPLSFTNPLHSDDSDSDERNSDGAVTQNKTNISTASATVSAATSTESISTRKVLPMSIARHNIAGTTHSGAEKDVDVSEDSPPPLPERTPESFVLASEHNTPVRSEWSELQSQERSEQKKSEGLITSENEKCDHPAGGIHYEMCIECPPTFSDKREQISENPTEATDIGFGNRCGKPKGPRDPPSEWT

[4] = biological target: T1, Tyrosine-protein phosphatase non-receptor type 22 (Homo sapiens, UniProt Q9Y2R2); test: SAR LYP1 Fluorescent Assay using OMFP substrate for In Vitro dose response studies - Set 3. [Related pubchem assays (depositor defined):AID1779, AID1784, AID2140, AID2686]; type: functional
T1 sequence (Q9Y2R2 whole entry): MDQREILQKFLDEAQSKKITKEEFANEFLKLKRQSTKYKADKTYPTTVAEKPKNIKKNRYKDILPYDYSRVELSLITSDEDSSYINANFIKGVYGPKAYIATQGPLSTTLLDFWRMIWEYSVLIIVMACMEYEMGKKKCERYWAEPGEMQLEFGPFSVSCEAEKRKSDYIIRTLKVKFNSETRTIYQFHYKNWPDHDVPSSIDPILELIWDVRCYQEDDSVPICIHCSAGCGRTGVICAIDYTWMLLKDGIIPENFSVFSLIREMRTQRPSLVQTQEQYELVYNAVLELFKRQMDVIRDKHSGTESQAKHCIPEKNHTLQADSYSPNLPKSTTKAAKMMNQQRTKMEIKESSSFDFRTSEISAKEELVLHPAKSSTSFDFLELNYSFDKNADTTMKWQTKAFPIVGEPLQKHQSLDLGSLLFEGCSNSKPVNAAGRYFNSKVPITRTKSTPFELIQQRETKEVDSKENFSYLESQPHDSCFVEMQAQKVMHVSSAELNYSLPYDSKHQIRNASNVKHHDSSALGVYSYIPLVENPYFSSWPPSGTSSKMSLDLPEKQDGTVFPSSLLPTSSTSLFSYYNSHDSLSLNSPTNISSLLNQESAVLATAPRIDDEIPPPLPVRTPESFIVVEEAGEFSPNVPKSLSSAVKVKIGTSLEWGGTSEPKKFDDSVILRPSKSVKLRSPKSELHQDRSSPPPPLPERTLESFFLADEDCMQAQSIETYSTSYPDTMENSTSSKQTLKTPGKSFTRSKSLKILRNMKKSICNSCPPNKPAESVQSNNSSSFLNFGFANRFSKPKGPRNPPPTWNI

[5] = biological target: T2, G-protein coupled receptor 35 (Homo sapiens, UniProt Q9HC97); test: inhibition of zaprinast-stimulated GPR35 beta-arrestin translocation – imaging, U2OS, beta-arrestin-GFP, zaprinast agonist, primary screen (AID 2058); type: functional;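 note: antagonist potency meaning inhibition of agonist-induced arrestin redistribution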
T2 sequence (Q9HC97 whole entry): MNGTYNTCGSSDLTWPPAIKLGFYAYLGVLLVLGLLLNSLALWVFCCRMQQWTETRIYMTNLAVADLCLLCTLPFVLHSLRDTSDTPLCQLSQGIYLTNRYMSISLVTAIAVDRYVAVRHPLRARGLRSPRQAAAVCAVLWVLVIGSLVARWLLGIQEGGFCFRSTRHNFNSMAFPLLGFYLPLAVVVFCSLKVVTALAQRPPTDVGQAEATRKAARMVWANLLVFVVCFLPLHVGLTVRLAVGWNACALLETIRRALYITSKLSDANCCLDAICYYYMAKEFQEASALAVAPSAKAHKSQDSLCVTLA

[6] = biological target: 26S proteasome non-ATPase regulatory subunit 14 (Homo sapiens, UniProt O00487); test: inhibition of proteasome subunit RPN11 – biochemical, fluorescence polarization, uHTS hits, confirmation (AID 602368); type: functional
26S proteasome non-ATPase regulatory subunit 14, sequence (O00487 whole entry): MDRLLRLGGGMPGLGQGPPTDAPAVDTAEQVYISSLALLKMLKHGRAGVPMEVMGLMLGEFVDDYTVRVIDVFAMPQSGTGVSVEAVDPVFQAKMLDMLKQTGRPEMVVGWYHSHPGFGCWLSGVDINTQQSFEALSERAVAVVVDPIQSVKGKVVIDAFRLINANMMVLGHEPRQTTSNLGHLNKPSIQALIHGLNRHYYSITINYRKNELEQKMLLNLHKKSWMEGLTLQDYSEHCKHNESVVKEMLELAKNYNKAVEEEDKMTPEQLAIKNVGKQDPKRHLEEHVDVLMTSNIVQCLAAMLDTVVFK

[7] = biological target: T2, G-protein coupled receptor 35; test: SAR Analysis for the identification of Selective Antagonists of ERK1/2 Activity in GPR35-Overexpressing U2OS Cells. [Related pubchem assays: 2079, 2058 ]; type: functional, cell-based
[8] = biological target: T1, Tyrosine-protein phosphatase non-receptor type 22; test: inhibition of lymphoid tyrosine phosphatase LYP – biochemical, pCAP fluorogenic substrate, fluorescence, set 3, SAR follow-up (AID 449727); type: functional
[9] = biological target: Prothrombin (Bos taurus, UniProt P00735); test: thrombin protease inhibitors – biochemical, fluorescence polarization, uHTS hits, dose response (AID 602369); type: functional
[10] = biological target: T3, Tyrosine-protein phosphatase non-receptor type 7 (Homo sapiens, UniProt P35236); test: inhibition of hematopoietic tyrosine phosphatase HePTP – biochemical, set 2, SAR follow-up (AID 449736); type: functional
T3 sequence (P35236 whole entry): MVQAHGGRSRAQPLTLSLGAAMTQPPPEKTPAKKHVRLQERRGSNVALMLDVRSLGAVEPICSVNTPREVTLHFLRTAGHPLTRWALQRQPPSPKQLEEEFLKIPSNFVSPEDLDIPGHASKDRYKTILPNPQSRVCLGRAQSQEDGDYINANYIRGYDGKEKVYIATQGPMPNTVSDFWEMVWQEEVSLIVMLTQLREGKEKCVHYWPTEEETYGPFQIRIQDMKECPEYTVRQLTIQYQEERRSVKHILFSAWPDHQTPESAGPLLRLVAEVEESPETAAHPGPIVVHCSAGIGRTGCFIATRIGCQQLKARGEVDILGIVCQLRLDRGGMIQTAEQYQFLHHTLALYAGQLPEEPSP

[11] = biological target: Lysine-specific demethylase 4C (Homo sapiens, UniProt Q9H3R0); test: inhibition of JMJD2C H3K9me3 demethylation – biochemical, DELFIA europium, cherry-picked samples, dose response (AID 488835); type: functional
[12] = biological target: T4, Small ubiquitin-related modifier 1 (Homo sapiens, UniProt P63165); test: SUMO1 protein-protein binding blockers, potency – biochemical, FRET, dose response (AID 624383); type: functional; settings: read-out: IC50_Mean
T4 sequence (P63165 whole entry): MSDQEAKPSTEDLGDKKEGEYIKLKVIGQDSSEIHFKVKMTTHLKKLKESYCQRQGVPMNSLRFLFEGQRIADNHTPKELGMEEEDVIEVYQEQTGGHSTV

[13] = biological target: Bcl-2-like protein 1 (Homo sapiens, UniProt Q07817); test: blockers of BCLXL peptide binding – biochemical, fluorescence polarization, 1536-well, selectivity assay for MCL1 inhibitor project, dose response (AID 2218)
Bcl-2-like protein 1, sequence (Q07817 whole entry): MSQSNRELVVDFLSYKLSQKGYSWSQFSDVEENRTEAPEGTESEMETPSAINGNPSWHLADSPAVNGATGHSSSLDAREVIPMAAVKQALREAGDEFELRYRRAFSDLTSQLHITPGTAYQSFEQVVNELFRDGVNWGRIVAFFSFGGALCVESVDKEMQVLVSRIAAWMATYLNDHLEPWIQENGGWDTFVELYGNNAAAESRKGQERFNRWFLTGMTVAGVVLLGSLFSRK

[14] = biological target: Induced myeloid leukemia cell differentiation protein Mcl-1 (Homo sapiens, UniProt Q07820); test: blockers of MCL1 binding to BIM peptide – biochemical, fluorescence polarization, BIM-BH3 peptide, 1536-well, dose response (AID 2217)
Induced myeloid leukemia cell differentiation protein Mcl-1, sequence (Q07820 whole entry, the tested form may be a part): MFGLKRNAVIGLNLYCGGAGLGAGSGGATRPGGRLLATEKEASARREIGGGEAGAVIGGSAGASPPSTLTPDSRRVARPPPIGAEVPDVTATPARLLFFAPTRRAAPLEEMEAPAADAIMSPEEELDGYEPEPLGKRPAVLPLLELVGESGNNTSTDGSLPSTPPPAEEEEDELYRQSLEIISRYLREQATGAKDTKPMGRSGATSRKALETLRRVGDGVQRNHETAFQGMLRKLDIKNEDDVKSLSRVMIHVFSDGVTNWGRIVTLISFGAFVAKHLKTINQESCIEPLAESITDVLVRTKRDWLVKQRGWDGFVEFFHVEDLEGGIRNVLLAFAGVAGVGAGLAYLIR

[15] = biological target: T5, Carboxy-terminal domain RNA polymerase II polypeptide A small phosphatase 1 (Homo sapiens, UniProt Q9GZU7); test: CTDSP1 inhibitors, concentration-response, biochemical, absorbance readout, ultra-high-throughput screen actives (AID 540297); type: functional
T5 sequence (Q9GZU7 whole entry): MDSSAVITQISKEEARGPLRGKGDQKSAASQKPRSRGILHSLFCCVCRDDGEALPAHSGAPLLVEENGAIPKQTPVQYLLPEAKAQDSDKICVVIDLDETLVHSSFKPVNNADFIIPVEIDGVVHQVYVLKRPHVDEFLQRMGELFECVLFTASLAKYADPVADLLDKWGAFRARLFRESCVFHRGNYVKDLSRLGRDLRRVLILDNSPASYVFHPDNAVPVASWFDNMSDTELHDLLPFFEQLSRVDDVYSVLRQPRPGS

[16] = biological target: Beta-adrenergic receptor kinase 1 (Homo sapiens, UniProt P25098); test: blockers of aptamer binding to GRK2 – biochemical, flow cytometry beads, FAM-aptamer, powder set 1, dose response (AID 588720)
Beta-adrenergic receptor kinase 1, sequence (P25098 whole entry): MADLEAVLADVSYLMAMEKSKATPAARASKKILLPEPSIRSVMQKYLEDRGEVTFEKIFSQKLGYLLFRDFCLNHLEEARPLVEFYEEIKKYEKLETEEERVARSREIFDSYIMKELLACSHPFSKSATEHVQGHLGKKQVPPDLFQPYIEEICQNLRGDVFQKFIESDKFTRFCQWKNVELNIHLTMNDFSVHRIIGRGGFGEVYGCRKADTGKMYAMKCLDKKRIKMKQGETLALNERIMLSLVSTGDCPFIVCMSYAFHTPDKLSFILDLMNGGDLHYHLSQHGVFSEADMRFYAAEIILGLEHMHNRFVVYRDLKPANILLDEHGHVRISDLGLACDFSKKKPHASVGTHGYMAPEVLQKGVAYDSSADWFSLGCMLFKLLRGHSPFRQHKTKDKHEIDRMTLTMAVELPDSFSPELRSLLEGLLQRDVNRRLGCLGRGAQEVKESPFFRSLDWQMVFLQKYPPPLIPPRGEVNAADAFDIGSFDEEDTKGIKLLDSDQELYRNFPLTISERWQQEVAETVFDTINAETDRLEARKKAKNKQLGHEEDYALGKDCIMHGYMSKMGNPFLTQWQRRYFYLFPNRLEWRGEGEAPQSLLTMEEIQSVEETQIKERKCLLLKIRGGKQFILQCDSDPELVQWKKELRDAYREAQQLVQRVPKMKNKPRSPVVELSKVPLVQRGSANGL

[17] = biological target: T4, Small ubiquitin-related modifier 1; test: SUMO1 protein interaction blockers, potency – biochemical, fluorescence polarization, uHTS hits, dose response (AID 624382); type: functional; settings: read-out: IC50_Mean
[18] = biological target: T6, Apoptotic protease-activating factor 1 (Homo sapiens, UniProt O14727); test: SAR analysis of small molecule Activators of Apaf-1 in a Fluorescent assay.; type: functional; settings: read-out: EC50_Mean;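 note: caspase-3 cleavage of fluorogenic Rh110 DEVD substrate downstream of apoptosome activation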
T6 sequence (O14727 whole entry): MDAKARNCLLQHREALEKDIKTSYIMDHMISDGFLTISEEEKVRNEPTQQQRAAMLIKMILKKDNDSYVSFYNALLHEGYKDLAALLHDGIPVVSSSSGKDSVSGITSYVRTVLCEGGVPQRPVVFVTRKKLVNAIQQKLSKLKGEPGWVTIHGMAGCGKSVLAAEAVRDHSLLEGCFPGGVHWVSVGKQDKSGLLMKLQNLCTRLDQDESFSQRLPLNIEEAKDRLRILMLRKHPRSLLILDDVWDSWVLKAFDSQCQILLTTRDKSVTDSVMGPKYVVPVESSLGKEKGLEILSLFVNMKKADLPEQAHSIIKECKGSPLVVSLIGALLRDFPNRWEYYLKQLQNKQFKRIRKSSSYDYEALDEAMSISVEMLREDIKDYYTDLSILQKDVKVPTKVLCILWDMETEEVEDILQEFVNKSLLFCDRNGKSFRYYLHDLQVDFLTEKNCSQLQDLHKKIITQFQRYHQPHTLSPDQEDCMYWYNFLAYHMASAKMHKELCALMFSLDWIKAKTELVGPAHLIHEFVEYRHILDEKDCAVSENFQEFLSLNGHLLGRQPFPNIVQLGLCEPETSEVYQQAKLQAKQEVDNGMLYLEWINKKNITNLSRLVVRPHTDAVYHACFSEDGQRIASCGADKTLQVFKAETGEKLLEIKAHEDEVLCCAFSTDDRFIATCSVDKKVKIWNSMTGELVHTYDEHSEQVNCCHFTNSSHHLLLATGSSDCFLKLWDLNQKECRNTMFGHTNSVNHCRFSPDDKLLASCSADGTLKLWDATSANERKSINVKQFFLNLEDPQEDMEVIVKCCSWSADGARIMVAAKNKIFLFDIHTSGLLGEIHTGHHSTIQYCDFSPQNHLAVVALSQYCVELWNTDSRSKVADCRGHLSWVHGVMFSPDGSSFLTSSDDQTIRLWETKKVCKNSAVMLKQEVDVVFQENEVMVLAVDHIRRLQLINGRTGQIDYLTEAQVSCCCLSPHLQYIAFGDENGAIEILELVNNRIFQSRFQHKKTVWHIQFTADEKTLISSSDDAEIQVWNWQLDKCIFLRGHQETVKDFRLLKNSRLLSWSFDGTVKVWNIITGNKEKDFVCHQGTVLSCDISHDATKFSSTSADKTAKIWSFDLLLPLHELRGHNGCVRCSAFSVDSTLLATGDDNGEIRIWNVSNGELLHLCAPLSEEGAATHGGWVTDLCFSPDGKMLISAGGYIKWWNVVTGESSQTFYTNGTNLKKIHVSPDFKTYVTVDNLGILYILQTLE

[19] = biological target: Phosphomannomutase 2 (Homo sapiens, UniProt O15305); test: Counter screen SAR assay for PMM2 inhibitors via a fluorescence intensity assay. [Related pubchem assays (depositor defined):AID1545, AID1574]
Phosphomannomutase 2, sequence (O15305 whole entry): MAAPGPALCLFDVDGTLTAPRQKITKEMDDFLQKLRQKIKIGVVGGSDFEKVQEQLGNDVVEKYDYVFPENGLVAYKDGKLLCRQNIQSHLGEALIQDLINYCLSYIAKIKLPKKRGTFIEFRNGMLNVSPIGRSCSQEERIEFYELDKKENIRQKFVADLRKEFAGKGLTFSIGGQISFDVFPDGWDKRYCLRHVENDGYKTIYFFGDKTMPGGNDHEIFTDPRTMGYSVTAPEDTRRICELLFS

[20] = biological target: T7, Mannose-6-phosphate isomerase (Homo sapiens, UniProt P34949); test: phosphomannose isomerase inhibition – biochemical, fluorescence intensity, confirmation (AID 1535)
T7 sequence (P34949 whole entry): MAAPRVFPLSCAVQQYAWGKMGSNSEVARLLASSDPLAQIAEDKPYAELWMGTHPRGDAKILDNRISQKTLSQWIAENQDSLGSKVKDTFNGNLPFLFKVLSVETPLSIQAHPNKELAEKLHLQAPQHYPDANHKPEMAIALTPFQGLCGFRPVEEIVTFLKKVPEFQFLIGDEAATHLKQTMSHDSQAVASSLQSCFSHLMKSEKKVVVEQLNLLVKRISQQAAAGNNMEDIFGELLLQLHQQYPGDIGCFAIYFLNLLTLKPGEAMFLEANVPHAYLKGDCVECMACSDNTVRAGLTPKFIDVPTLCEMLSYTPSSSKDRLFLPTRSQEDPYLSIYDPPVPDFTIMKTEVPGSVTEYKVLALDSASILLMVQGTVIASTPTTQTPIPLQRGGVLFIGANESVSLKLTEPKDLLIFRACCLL

[21] = biological target: UDP-galactopyranose mutase (Mycobacterium tuberculosis, UniProt P9WIQ1); test: Inhibitors of Mycobacterium tuberculosis UDP-galactopyranose mutase (UGM) enzyme Measured in Biochemical System Using Plate Reader - 2105-02_Inhibitor_Dose_CherryPick_Activity. [Related pubchem assays (depositor defined):AID504439]
UDP-galactopyranose mutase, sequence (P9WIQ1 whole entry): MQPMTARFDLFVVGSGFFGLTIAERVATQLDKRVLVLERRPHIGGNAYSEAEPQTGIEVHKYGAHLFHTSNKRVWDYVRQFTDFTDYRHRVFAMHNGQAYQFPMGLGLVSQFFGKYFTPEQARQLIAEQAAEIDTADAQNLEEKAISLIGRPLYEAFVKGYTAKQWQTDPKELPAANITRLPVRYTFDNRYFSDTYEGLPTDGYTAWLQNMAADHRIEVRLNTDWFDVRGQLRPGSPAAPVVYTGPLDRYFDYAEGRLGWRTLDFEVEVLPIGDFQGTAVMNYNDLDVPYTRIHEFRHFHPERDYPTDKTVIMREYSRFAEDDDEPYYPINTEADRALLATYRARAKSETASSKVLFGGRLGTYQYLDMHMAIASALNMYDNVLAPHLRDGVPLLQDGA

[22] = viability loss of HMLE_sh_eGFP cells – cell-based, luminescence, counter-screen for HMLE_sh_ECad selective toxicity project, dose response (AID 463074); type: functional, Homo sapiens;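 note: HMLE human mammary epithelial cells expressing control shRNA against eGFP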
[23] = Luminescence Cell-Based Dose Retest to Confirm Inhibitors of Cancer Stem Cells. [Related pubchem assays (depositor defined):AID2717, AID2721]; type: functional; settings: Homo sapiens

G-protein coupled receptor 55, sequence (Q9Y2T6 whole entry): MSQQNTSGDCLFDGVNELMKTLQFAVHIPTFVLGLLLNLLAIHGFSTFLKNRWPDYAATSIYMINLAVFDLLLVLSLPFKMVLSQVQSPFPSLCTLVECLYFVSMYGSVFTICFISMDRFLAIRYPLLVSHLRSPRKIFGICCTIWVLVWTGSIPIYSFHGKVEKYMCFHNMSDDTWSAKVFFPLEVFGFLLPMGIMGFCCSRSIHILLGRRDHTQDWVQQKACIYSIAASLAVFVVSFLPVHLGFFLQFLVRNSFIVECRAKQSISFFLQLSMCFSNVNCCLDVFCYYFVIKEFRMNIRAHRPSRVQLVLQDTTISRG

Structure (SMILES): O=C(CCCN1C(=O)/C(=C/c2ccc3c(c2)OCO3)SC1=S)Nc1ccc(C(=O)O)cc1
- IC50 [1]: 20 µM (inactive)
- IC50 [2]: 43 µM (active)
- IC50 [3]: 12.1 µM (active)
- IC50 [4]: 91.4 µM (active)
- IC50 [5]: 0.563 µM (active)
- IC50 [6]: 40.7 µM (active)
- IC50 [7]: 4.07 µM (active)
- IC50 [8]: 47 µM (active)
- IC50 [9]: 38.9 µM (active)
- IC50 [10]: 1.99 µM (active)

Structure (SMILES): c1cc2c(cc1-c1csc(NNC3=NCCCCC3)n1)OCCO2
- AC50 [11]: 17 µM (active)

Structure (SMILES): COc1ccc(Cl)cc1NC(=O)CCS(=O)(=O)c1ccc(Br)cc1
- IC50 [2]: > 100 µM (inactive)
- IC50 [12]: 5.02 µM (active)
- IC50 [6]: 10.9 µM (active)
- IC50 [13]: 32.2 µM (not active)
- IC50 [9]: > 100 µM (inactive)
- IC50 [14]: 11.4 µM (not active)
- IC50 [15]: 4.16 µM (active)
- EC50 [16]: 0.779 µM (active)
- IC50 [17]: > 66.6 µM (inactive)
- EC50 [18]: 17.4 µM (active)

Structure (SMILES): COc1cc([N+](=O)[O-])ccc1/N=c1\ssnc1Cl
- IC50 [19]: > 100 µM (inactive)
- IC50 [20]: 3.25 µM (active)

Structure (SMILES): O=C(NCc1ccc(F)cc1)c1cccc2c1C(=O)c1ccc(N3CCC(Cc4ccccc4)CC3)cc1S2(=O)=O
- AC50 [21]: 5.84 µM (active)

Structure (SMILES): CN1CCN(/N=C/c2ccc(OCc3ccccc3)cc2)CC1
- AC50 [22]: 56 µM (active)
- AC50 [23]: 5.25 µM (active)
